Measured values reported in patent publication EP1389624A1, “Phosphorous-containing cysteine and serine protease inhibitors” (CEPHALON, INC., priority 1995, dated 1997).
Structures can show the parent of a compound that is named as a salt.

The compounds below were run against T1, Calpain I (Homo sapiens, UniProt P07384) (assay: Inhibition and rate of inactivation of cysteine protease (calpain I) activity, Succ-Leu-Tyr-MNA substrate hydrolysis). Details: read-out: % Inhib. @ 0.1 uM.
T1 sequence (P07384 1-714): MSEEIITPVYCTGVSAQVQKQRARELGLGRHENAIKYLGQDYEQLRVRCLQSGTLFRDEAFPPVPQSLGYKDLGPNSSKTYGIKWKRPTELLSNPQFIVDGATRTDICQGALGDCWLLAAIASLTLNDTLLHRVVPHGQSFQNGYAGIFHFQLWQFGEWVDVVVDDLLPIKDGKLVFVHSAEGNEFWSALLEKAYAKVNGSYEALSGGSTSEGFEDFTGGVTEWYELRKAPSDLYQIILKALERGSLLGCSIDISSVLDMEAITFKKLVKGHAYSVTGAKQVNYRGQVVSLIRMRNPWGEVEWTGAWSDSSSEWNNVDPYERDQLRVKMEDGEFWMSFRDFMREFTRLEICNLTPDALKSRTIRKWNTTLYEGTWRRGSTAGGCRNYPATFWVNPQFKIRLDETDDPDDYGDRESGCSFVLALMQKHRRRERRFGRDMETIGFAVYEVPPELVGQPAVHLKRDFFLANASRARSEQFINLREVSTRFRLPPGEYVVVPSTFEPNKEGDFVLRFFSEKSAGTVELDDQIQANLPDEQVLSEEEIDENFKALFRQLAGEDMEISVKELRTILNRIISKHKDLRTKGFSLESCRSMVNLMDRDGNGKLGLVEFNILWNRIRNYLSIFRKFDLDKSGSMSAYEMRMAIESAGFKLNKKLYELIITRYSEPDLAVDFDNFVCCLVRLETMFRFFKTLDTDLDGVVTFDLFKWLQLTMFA
T1 sequence (P04632 1-268 partner): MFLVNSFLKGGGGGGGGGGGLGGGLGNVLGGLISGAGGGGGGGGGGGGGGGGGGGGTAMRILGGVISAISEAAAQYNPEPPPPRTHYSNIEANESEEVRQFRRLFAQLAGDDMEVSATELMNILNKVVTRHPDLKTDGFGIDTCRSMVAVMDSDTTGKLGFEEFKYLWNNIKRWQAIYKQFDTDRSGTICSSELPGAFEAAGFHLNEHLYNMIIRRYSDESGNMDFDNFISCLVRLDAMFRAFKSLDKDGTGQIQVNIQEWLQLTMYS
Experimental: To evaluate inhibitory activity, stock solutions (40 times concentrated) of each compound to be tested were prepared in 100% anhydrous DMSO and 5 µl of each inhibitor preparation were aliquoted into each of three wells of a 96 well plate. […] To start the reaction, 20 µl of 50 mM CaCl2 in assay buffer was added to all wells of the plate, excepting three, which were used as background signal baseline controls. Substrate hydrolysis was monitored every 5 minutes for a total of 30 minutes. Substrate hydrolysis in the absence of inhibitor was linear for up to 15 minutes.
Inhibition of calpain I activity was calculated as the percent decrease in the rate of substrate hydrolysis in the presence of inhibitor (vi) relative to the rate in its absence (vo). Comparison between vo and vi was made within the linear range for substrate hydrolysis. […] Apparent second order rate constants were determined from analysis of reaction progress curves under pseudo-first order conditions. Each determination represents the mean of three or more independent single cuvette analyses continually monitored via a Perkin-Elmer LS50B spectrofluorimeter.

Point of comparison: `CC(C)C[C@H](NC(=O)OCc1ccccc1)C(=O)N[C@@H](CC(C)C)C(=O)P(=O)(c1ccc(Cl)cc1)c1ccc(Cl)cc1` [Example 67, [Benzyloxycarbonyl-L-leucyl-L-leucyl]bis(4-chlorophenyl)phosphine oxide], inhibition at 0.1 µM 4%. Against it:
- COP(=O)(O)C(=O)[C@H](CC(C)C)NC(=O)[C@H](CC(C)C)NC(=O)OCc1ccccc1 [Example 65, Methyl Hydrogen N-Benzyloxycarbonyl-L-leucyl-L-leucylphosphonate] — higher, 19%

Same assay, conditions: read-out: kobs/I x 10^-3 M^-1s^-1

Point of comparison: `CCCCC(CC)COP(=O)(OCC(=O)[C@H](Cc1ccccc1)NC(=O)[C@H](CC(C)C)NC(=O)OCc1ccccc1)OCC(CC)CCCC` (stereo partly drawn) [Example 44, Bis(2-ethylhexyl) (3S)-[3-[(N-Benzyloxycarbonyl-L-leucyl)amino]-2-oxo-4-phenylbutyl] phosphate], kinact/KI 1000 M⁻¹ s⁻¹. Against it:
- CC(C)C[C@H](NC(=O)OCc1ccccc1)C(=O)N[C@@H](Cc1ccccc1)C(=O)COP(=O)(OCc1ccccc1)OCc1ccccc1 [Example 34, Dibenzyl (3S)-[3-[(N-Benzyloxycarbonyl-L-leucyl)amino]-2-oxo-4-phenylbutyl] phosphate] — 100-fold higher, 100000 M⁻¹ s⁻¹
- CC(C)C[C@H](NC(=O)OCc1ccccc1)C(=O)N[C@@H](Cc1ccccc1)C(=O)COP(=O)(OCCN1CCOCC1)c1ccccc1 (stereo partly drawn) [Example 50, 2-(Morpholin-4-yl)ethyl (3S)-[3-[(N-benzyloxycarbonyl-L-leucyl)amino]-2-oxo-4-phenylbutyl] phenylphosphonate hydrochloride] — 70-fold higher, 70000 M⁻¹ s⁻¹
- COc1cccc(P(=O)(OCC(=O)[C@H](Cc2ccccc2)NC(=O)[C@H](CC(C)C)NC(=O)OCc2ccccc2)c2ccccc2)c1 (stereo partly drawn) [Example 59, (3S)-[3-[(N-Benzyloxycarbonyl-L-leucyl)amino]-2-oxo-4-phenylbutyl] (3-methoxylphenyl)(phenyl)phosphinate] — 160-fold higher, 163000 M⁻¹ s⁻¹
